Experimental data taken from patent publication US5985292A, “Active phospholipids as a vector for active molecules” (Roussel-UCLAF, priority 1993, dated 1999).

System: comedones
Conditions: topical
Procedure: As an example, the comedolytic power of all-trans 2-retinoyl phosphatidinyl ethanol was tested following the protocol below:
The animal chosen for the test of comedolytic activity was the Hairless Rhino (hr rh) mouse of female sex, this choice being due to the fact that the skin of such an animal has a high density of comedones having a large diameter and narrow orifice. The use of comedolytic agents on the skin of the animal provokes the opening of the orifice of the comedones, the release of the horny material and the sebum that it contains.
Two groups comprising six mice each which were six-week's old at the start of the test and weighing on average 18 grams each were used. The first group were mice treated with distilled water (negative control group) and the second group were mice treated with the product under study. The treatment consisted of a topical use of the product studied on the interscapular area at a dose of 0.02 ml, 5 days out of 7, for 21 days. The animals were sacrificed at the end of three weeks of treatment, 24 hours after the last application.
Biopsies of the skin were then taken from the treated areas of the animals and from these biopsies, sections were prepared for a standard morphometric study by methods known to a person skilled in the art. The following parameters were measured: diameter of the opening of the comedon at the surface i.e d […]
comedonian profile i.e R = d/D
The ratio R=d/D allowed the action of the comedolytic agents to be quantified.
The percentage of inhibition of the comedones was calculated for the product under study relative to the negative control, i.e. the following ratio: [formula]

all-trans 2-retinoyl phosphatidinyl ethanol
% inhibition of the comedones relative to the negative control (0.1% in solution in ethylenediglycol, interscapular, 0.02 ml, 5 days out of 7, for 21 days): 14.1%
comedonian profile R = d/D (diameter of the opening of the comedon at the surface / diameter of the comedon) (0.1% in solution in ethylenediglycol, interscapular, 0.02 ml, 5 days out of 7, for 21 days, negative control (distilled water) R = 0.78): 0.89
comedolytic activity (in words) (at a dose of 0.1%, 21 days): good comedolytic activity
